One assay addresses T1, human ADORA3 (Homo sapiens, UniProt P0DMS8).
T1 construct: host or cells: CHO
T1 sequence (P0DMS8 1-318): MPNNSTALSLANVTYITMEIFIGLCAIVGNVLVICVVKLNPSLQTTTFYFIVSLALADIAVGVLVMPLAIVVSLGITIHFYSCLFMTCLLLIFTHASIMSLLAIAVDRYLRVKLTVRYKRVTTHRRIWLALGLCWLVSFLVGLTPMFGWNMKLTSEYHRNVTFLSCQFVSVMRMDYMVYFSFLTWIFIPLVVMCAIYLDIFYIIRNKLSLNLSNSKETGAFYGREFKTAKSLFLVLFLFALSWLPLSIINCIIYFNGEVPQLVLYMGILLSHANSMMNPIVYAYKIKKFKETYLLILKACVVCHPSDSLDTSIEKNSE
In words: Calcium flow test (FLIPR), ADORA3 stably transfected CHO. The assay is classed as cell-based. The following applies: Table 9. The protocol: In this experiment, stably transfected cell lines over-expressing adenosine receptor coupled to human Gq were used, and the antagonistic function of Compound 22 was evaluated by testing the changes in intracellular calcium ion concentration. The binding of the A2AR agonist to A2AR could activate a downstream pathway to increase the intracellular calcium ion concentration. The antagonist would competitively occupy the binding site where the agonist binds to A2AR, thereby interrupting the intracellular signal transduction and leading to a change in the intracellular calcium ion concentration. By detecting the strength of the intracellular calcium ion signal, the antagonistic activities of the compound on human ADORA1, ADORA2A, ADORA2B and ADORA3 adenosine receptors were determined. […]
7) The FLIPR instrument software was operated; following a set program, 10 μL of experimental buffer salt solution was added to the cell plate; and fluorescence signals were read. Then, 10 μL of the reference compound of agonist at a predetermined concentration was added to the cell plate, and the fluorescence signals were read. After reading, data was exported by means of “Max-Min” and “Read 91 to Maximum allowed” in the software, the EC80 of each cell line was calculated, and an agonist with a concentration of 6×EC80 was prepared.
9) The FLIPR instrument software was operated; following a set program, 10 μL of the test compound and 10 μL of the reference compound were added at a predetermined concentration to the cell plate; and the fluorescence signals were read. Then, 10 μL of the reference compound of agonist at a concentration of 6×EC80 was added to the cell plate, and the fluorescence signal were read. For the antagonist detection of the compound, data was exported by means of “Max-Min” and “Read 1 to 90” in the software. […]

Assay [1] addresses T2, Human adenosine ADORA3 receptor membrane protein (Homo sapiens, UniProt P0DMS8).
T2 construct: purchased PerkinElmer ES-012-M400UA
T2 sequence (P0DMS8 1-318): T1 sequence (P0DMS8 1-318)
In words: Radioisotope ligand competitive binding, ADORA3 ([3H] HEMADO). The following applies: ADORA3 (IC50, nM, n = 3), binding test. As for the experimental part: ADORA3: 25 mM HEPES pH 7.4, 10 mM MgCl2, 1 mM CaCl2, 0.5% BSA
4) Preparation of compounds: the test compounds and the reference compounds were separately diluted with 100% DMSO. For the test compounds, the initial concentration was 10 μM, with double secondary wells; 4-fold gradient dilution was carried out at 10 points; and the final working concentration was 0.038 nM-10 μM (for the second and third detection of the test compound against an ADORA2A target, the initial concentration was 2 μM, with double secondary wells, 4-fold gradient dilution was carried out at 10 points, and the final working concentration was 0.0076 nM-2 μM). For the ADORA1, ADORA2A, ADORA2B, and ADORA3 reference compounds, the initial concentration was 1 μM, with double secondary wells, 4-fold gradient dilution was carried out at 10 points, and the final working concentration was 0.0038 nM-1 μM.
1 μL of a sample to be tested and 1 μL of a reference compound were added to a 96-well plate in sequence. […] 100 μL of cells and 100 μL of isotopes were added to all experimental wells. The 96-well plate was sealed; ADORA1, ADORA2B, and ADORA3 were incubated for 1 hour on a shaker (300 rpm) at room temperature (22° C.); and ADORA2A was incubated for 2 hours on a shaker (300 rpm) at room temperature (22° C.). At the same time, a GF/C filter plate was soaked with ADORA1, ADORA2A, ADORA2B, and ADORA3 by using 0.3% PEI for at least 30 minutes at room temperature, at 50 μL/well. After the incubation was completed, the incubated reaction system was collected onto the GF/C filter plate with a Harvester, washed 4 times and then dried for 0.5 hours in an oven at 50° C. The bottom of the dried GF/C filter plate was sealed with a film, 50 μL of scintillation solution was added to each well, which was then sealed with a Top-seal-A film. With Microbeta readings, the data was analyzed by GraphPad Prism 5.0.
% Inhibition=100×(1−(Sample_raw value−Low control_Average)/(High control_Average−Low control_Average))
The data was fitted with “log(inhibitor) vs response-variable slope” in GraphPad Prism 5.0 to obtain IC50.

The IC50 is the midpoint of a concentration-inhibition curve.

In the case of `Nc1nc2ccc(Cl)cc2c2nc(-c3ccco3)nn12` [CGS-15943, reference compound], the IC50 turned out to be 0.0321 ± 0.00452 µM at human ADORA3, 18 ± 11.4 nM in assay [1] (Table 10 (IC50)) and 14.5 nM in assay [1] (Table 11).
